Laboratory results as given in patent US11578055B2, “Triazacyclododecansulfonamide (“TCD”)-based protein secretion inhibitors” (KEZAR LIFE SCIENCES, priority 2018, dated 2023).
pEC50, pIC50: −log10 of the molar value.

Assays:
[1] = system: multiple myeloma cell line U266B1; experiment: U266 Cell Viability Assay; type: cell-based, human; conditions: Homo sapiens, U-266; 48 hr, U266, Celltiter-Glo
Summary of the method: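 Viability was measured by CellTiter-Glo luminescence after 48 h compound exposure at 37° C, 5% CO2. The cells were U266B1 multiple myeloma cells grown in RPMI 1640 plus 10% FBS. Where stereochemistry is not shown, values apply to the stereoisomer mixture.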

[2] = In Vitro Microsome Stability Assay (mouse); type: in vitro ADME; conditions: mouse liver microsomes, 30 min w/ NADPH
Summary of the method: (§1)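 Test article, added from a 0.25 mM DMSO stock, was incubated with liver microsomes (20 mg/mL stock) in 0.1 M potassium phosphate at 37° C, with the reaction started by NADPH. Samples were quenched with acetonitrile containing internal standard at 0 and 30 min and analysed by LC-MS/MS. Values are % remaining at 30 min versus 0 min, using IS-normalised AUC ratios.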

[3] = system: PD1 signal sequence plus 10 amino acids fused to Gaussia Luciferase (PD1-ss+10aa/Gaussia Luciferase); experiment: Dox Induced PD1-ss-Gluc Assay; type: cell-based; conditions: 24 hr, Dox inducible, 293FRT/TO cells; read-out: 24 hr Dox Inducible PD1ssGluc 293FRT/TO: Mean IC50
Summary of the method: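 Compound dilutions in DMSO/media containing doxycycline were applied to a stable, inducible 293 T-REx line carrying the luciferase fusion, then incubated at 37 °C, 5% CO2. Where stereochemistry is not drawn, values relate to isomer mixtures.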

[4] = system: IL-1β; experiment: Human PBMC Cytokine Assay: IL-1β; type: cell-based; conditions: LPS stimulation, 24 hours
Protocol: (§2) Human PBMC were freshly isolated from whole blood collections of 3 normal donors utilizing density gradient centrifugation followed by red blood cell lysis. PBMC from each donor were assayed separately. Cells were suspended in RPMI 1640 media supplemented with 5% fetal bovine serum, 2 mM L-glutamine, 10 mM HEPES, and 1× penicillin/streptomycin. PBMC were seeded at 200,000 cells/well in 96-well round-bottom plates either without stimulation or with stimulation by lipopolysaccharide (LPS, 1 μg/mL) or antibodies against human CD3 (plate-bound, 2 μg/mL) and human CD28 (soluble, 2 μg/mL). Serial dilutions of compound in DMSO/media were simultaneously added and PBMC were incubated at 37° C., 5% CO2 for 24 hours. After 24 hours, plates were centrifuged and half of the supernatant volume removed for cytokine analysis by electrochemiluminescent immunoassay (U-PLEX® Biomarker Multiplex, Meso Scale Discovery). For viability analysis, CellTiter-Glo® (Promega) was added to the remaining material in each well and quantified via luminescent plate reader.

[5] = system: full length TNFα (amino acids 1-233) fused to Gaussia Luciferase; experiment: Dox Induced TNFα-FL-Gluc Assay; type: cell-based; conditions: 24 hr, Dox inducible, 293FRT/TO cells; read-out: 24 hr Dox Inducible TNFaFLGluc 293FRT/TO: Mean IC50
Summary of the method: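 Compounds diluted in DMSO/medium with doxycycline were incubated at 37° C, 5% CO2 with 293 T-REx cells stably carrying a Tet-regulated TNFα(1-233)-Gaussia luciferase construct. Data for structures drawn without stereochemistry refer to stereoisomer mixtures.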

[6] = system: Human PBMC; experiment: Human PBMC CellTiter-Glo viability; type: cell-based; conditions: no stimulation, 24 hours
Protocol: as §2

[7] = system: full length IL-2 (amino acids 1-153) fused to Gaussia Luciferase; experiment: Dox Induced IL2-FL-Gluc Assay; type: cell-based; conditions: 24 hr, Dox inducible, 293FRT/TO cells; read-out: 24 hr Dox Inducible IL2FLGluc 293FRT/TO: Mean IC50
Summary of the method: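 Compounds in DMSO/media with doxycycline were added to cells plated the previous day and incubated at 37° C, 5% CO2. Cells: stable Flp-In 293 T-REx line, Dox-regulated expression of IL-2 (aa 1-153) fused at its C-terminus to Gaussia luciferase.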

[8] = system: TNFα; experiment: Human PBMC Cytokine Assay: TNFα; type: cell-based; conditions: anti-CD3/CD28 stimulation, 24 hours
Protocol: as §2

[9] = system: multiple myeloma cell line NCl-H929; experiment: H929 Cell Viability Assay; type: cell-based, human; conditions: Homo sapiens, NCI-H929, 48 h, H929, Celltiter-Glo
Summary of the method: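 Viability was determined by CellTiter-Glo luminescence after a 48 h, 37 °C exposure of NCI-H929 cells to serial compound dilutions in medium containing 10% FBS. Where stereochemistry is not shown, values refer to a mix of stereoisomers.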

[10] = system: IL-2; experiment: Human PBMC Cytokine Assay: IL-2; type: cell-based; conditions: anti-CD3/CD28 stimulation, 24 hours
Protocol: as §2

[11] = In Vitro Microsome Stability Assay (monkey); type: in vitro ADME; conditions: monkey liver microsomes, 30 min w/ NADPH
Summary of the method: as §1

[12] = system: GM-CSF; experiment: Human PBMC Cytokine Assay: GM-CSF; type: cell-based; conditions: anti-CD3/CD28 stimulation, 24 hours
Protocol: as §2

[13] = system: IL-23; experiment: Human PBMC Cytokine Assay: IL-23; type: cell-based; conditions: LPS stimulation, 24 hours
Protocol: as §2

[14] = system: IL-6; experiment: Human PBMC Cytokine Assay: IL-6; type: cell-based; conditions: LPS stimulation, 24 hours
Protocol: as §2

[15] = system: IFNγ; experiment: Human PBMC Cytokine Assay: IFNγ; type: cell-based; conditions: anti-CD3/CD28 stimulation, 24 hours
Protocol: as §2

[16] = In Vitro Microsome Stability Assay (human); type: in vitro ADME; conditions: human liver microsomes, 30 min w/ NADPH
Summary of the method: as §1

[17] = In Vitro Microsome Stability Assay (rat); type: in vitro ADME; conditions: rat liver microsomes, 30 min w/ NADPH
Summary of the method: as §1

Cc1ccccc1CN1CCCN(S(=O)(=O)c2ccc(N(C)C)cc2)C[C@H](C)CN(S(=O)(=O)N2CCc3cc(Cl)ccc3C2)CCC1 [A133, 4-{[(3S)-5-[(6-chloro-1,2,3,4-tetrahydroisoquinolin-2-yl)sulfonyl]-3-methyl-9-[(2-methylphenyl)methyl]-1,5,9-triazacyclododecan-1-yl]sulfonyl}-N,N-dimethylaniline]
pEC50 [1]: < 4.60
Liver Microsome Stability-% Left after 30 min w/ NADPH (%) Mouse [2]: 82.2%
pIC50 [3]: 7.43
IC50 [4]: > 25000 nM
pIC50 [5]: 6.13
IC50 [6]: > 25000 nM
pIC50 [7]: 6.87
IC50 [8]: 216 nM
pEC50 [9]: 5.29
IC50 [10]: 197 nM
Liver Microsome Stability-% Left after 30 min w/ NADPH (%) Monkey [11]: 67.3%
IC50 [12]: 404 nM
IC50 [13]: 1050 nM
IC50 [14]: 193 nM
IC50 [15]: 234 nM
Liver Microsome Stability-% Left after 30 min w/ NADPH (%) Human [16]: 71.3%
Liver Microsome Stability-% Left after 30 min w/ NADPH (%) Rat [17]: 87.3%
